Results from US11998539B2, “Substituted aminoquinolones as DGKalpha inhibitors for immune activation” (Bayer Aktiengesellschaft, priority 2019, dated 2024).

Target: DGKα (Homo sapiens (Human), UniProt P23743)
Assay: Human DGKα kinase activity inhibition assay (ADP-Glo)
Type: biochemical
Conditions: recombinant full-length human DGKα, 55 μM ATP, 7 μM 1,2-dioleoyl-sn-glycerol, read-out: IC50 values of examples in in vitro human DGKa kinase activity inhibition assays
Summary of the method: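 Activity was measured as ADP production, detected by luciferase luminescence after removal of unused ATP. The enzyme was baculovirus-expressed full-length human DGKα with a C-terminal FLAG tag. The substrate was 1,2-dioleoyl-sn-glycerol in detergent micelles, and compounds came from 100× DMSO solutions.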

DGKα, sequence (P23743 other isoform, or with tags, fused parts or gaps): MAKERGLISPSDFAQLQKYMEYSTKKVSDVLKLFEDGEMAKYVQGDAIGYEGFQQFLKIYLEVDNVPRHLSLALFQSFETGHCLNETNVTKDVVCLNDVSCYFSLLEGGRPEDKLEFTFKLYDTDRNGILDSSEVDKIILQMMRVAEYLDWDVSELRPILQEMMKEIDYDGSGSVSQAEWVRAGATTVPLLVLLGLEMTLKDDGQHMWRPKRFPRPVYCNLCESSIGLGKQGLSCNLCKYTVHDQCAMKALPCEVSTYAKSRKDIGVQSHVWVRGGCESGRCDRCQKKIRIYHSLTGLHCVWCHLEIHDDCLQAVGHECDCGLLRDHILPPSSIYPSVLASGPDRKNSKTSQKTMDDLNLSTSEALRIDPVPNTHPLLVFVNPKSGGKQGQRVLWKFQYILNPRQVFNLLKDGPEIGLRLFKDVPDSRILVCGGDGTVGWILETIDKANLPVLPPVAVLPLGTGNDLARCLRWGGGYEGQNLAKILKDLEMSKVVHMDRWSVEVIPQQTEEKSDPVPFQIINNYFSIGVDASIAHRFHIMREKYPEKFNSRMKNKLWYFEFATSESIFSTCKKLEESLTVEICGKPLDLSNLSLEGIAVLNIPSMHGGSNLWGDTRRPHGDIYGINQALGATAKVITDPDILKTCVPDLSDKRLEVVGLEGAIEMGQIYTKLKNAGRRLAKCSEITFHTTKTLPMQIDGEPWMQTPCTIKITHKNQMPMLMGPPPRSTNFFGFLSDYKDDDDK

| Compound | IC50 [µM] |
| --- | --- |
| Cc1ccc2oc(C3CCN(c4c(C(N)=O)c(=O)n(C)c5ccc(C#N)cc45)CC3)nc2c1 [Example 498, 6-cyano-1-methyl-4-[4-(5-methyl-1,3-benzoxazol-2-yl)piperidin-1-yl]-2-oxo-1,2-dihydroquinoline-3-carboxamide] | 0.0031 |
| Cc1ccc2oc(C3CCN(c4c(C(N)=O)c(=O)n(C)c5ccc(C(N)=O)cc45)CC3)nc2c1 [Example 499, 1-methyl-4-[4-(5-methyl-1,3-benzoxazol-2-yl)piperidin-1-yl]-2-oxo-1,2-dihydroquinoline-3,6-dicarboxamide] | 0.074 |
| Cc1ccc2oc(C3CCN(c4c(C(N)=O)c(=O)n(C)c5cc(N(C)CC#N)ccc45)CC3)nc2c1 [Example 500, 7-[(cyanomethyl)(methyl)amino]-1-methyl-4-[4-(5-methyl-1,3-benzoxazol-2-yl)piperidin-1-yl]-2-oxo-1,2-dihydroquinoline-3-carboxamide] | 0.0007 |
| COc1ccc2c(c1)c(N1CCC(c3nc4cc(C)ccc4o3)CC1)c(C(N)=O)c(=O)n2C [Example 501, 6-methoxy-1-methyl-4-[4-(5-methyl-1,3-benzoxazol-2-yl)piperidin-1-yl]-2-oxo-1,2-dihydroquinoline-3-carboxamide] | 0.021 |
| CCOc1ccc2c(c1)c(N1CCC(c3nc4cc(C)ccc4o3)CC1)c(C(N)=O)c(=O)n2C [Example 502, 6-ethoxy-1-methyl-4-[4-(5-methyl-1,3-benzoxazol-2-yl)piperidin-1-yl]-2-oxo-1,2-dihydroquinoline-3-carboxamide] | 0.12 |
| Cc1ccc2oc(C3CCN(c4c(C(N)=O)c(=O)n(C)c5ccc(OCC(C)(F)F)cc45)CC3)nc2c1 [Example 503, 6-(2,2-difluoropropoxy)-1-methyl-4-[4-(5-methyl-1,3-benzoxazol-2-yl)piperidin-1-yl]-2-oxo-1,2-dihydroquinoline-3-carboxamide] | 2.69 |
| Cc1ccc2oc(C3CCN(c4c(C(N)=O)c(=O)n(C)c5ccc(OCC(F)F)cc45)CC3)nc2c1 [Example 504, 6-(2,2-difluoroethoxy)-1-methyl-4-[4-(5-methyl-1,3-benzoxazol-2-yl)piperidin-1-yl]-2-oxo-1,2-dihydroquinoline-3-carboxamide] | 0.238 |
| Cc1ccc2oc(C3CCN(c4c(C(N)=O)c(=O)n(C)c5ccc(OCC6CC6)cc45)CC3)nc2c1 [Example 505, 6-(cyclopropylmethoxy)-1-methyl-4-[4-(5-methyl-1,3-benzoxazol-2-yl)piperidin-1-yl]-2-oxo-1,2-dihydroquinoline-3-carboxamide] | 0.269 |
| Cc1ccc2oc(C3CCN(c4c(C(N)=O)c(=O)n(C)c5ccc(C6CCC6)cc45)CC3)nc2c1 [Example 506, 6-cyclobutyl-1-methyl-4-[4-(5-methyl-1,3-benzoxazol-2-yl)piperidin-1-yl]-2-oxo-1,2-dihydroquinoline-3-carboxamide] | 0.574 |
| Cc1ccc2oc(C3CCN(c4c(C(N)=O)c(=O)n(C)c5ccc(C6(C(F)(F)F)CC6)cc45)CC3)nc2c1 [Example 507, 1-methyl-4-[4-(5-methyl-1,3-benzoxazol-2-yl)piperidin-1-yl]-2-oxo-6-[1-(trifluoromethyl)cyclopropyl]-1,2-dihydroquinoline-3-carboxamide] | 0.085 |
| Cc1ccc2oc(C3CCN(c4c(C(N)=O)c(=O)n(C)c5cc(OCC(N)=O)ccc45)CC3)nc2c1 [Example 508, 7-(2-amino-2-oxoethoxy)-1-methyl-4-[4-(5-methyl-1,3-benzoxazol-2-yl)piperidin-1-yl]-2-oxo-1,2-dihydroquinoline-3-carboxamide] | 0.0014 |
| Cc1ccc2oc(C3(F)CCN(c4c(C(N)=O)c(=O)n(C)c5cc(OC6CCOC6)ccc45)CC3)nc2c1 (stereo not shown) [Example 509, 4-[4-fluoro-4-(5-methyl-1,3-benzoxazol-2-yl)piperidin-1-yl]-1-methyl-2-oxo-7-[(oxolan-3-yl)oxy]-1,2-dihydroquinoline-3-carboxamide] | 0.002 |
| Cc1ccc2oc(C3CCN(c4c(C(N)=O)c(=O)n(C)c5cc([N+](=O)[O-])c(C)cc45)CC3)nc2c1 [Example 510, 1,6-dimethyl-4-[4-(5-methyl-1,3-benzoxazol-2-yl)piperidin-1-yl]-7-nitro-2-oxo-1,2-dihydroquinoline-3-carboxamide] | 0.07 |
| Cc1ccc2oc(C3CCN(c4c(C(N)=O)c(=O)n(C)c5cc(O)c(Br)cc45)CC3)nc2c1 [Example 511, 6-bromo-7-hydroxy-1-methyl-4-[4-(5-methyl-1,3-benzoxazol-2-yl)piperidin-1-yl]-2-oxo-1,2-dihydroquinoline-3-carboxamide] | 0.0015 |
| Cc1ccc2oc(C3(C)CCN(c4c(C(N)=O)c(=O)n(C)c5cc(O)c(Br)cc45)CC3)nc2c1 [Example 512, 6-bromo-7-hydroxy-1-methyl-4-[4-methyl-4-(5-methyl-1,3-benzoxazol-2-yl)piperidin-1-yl]-2-oxo-1,2-dihydroquinoline-3-carboxamide] | 0.0008 |
| Cn1c(=O)c(C(N)=O)c(N2CCC(c3nnc(-c4cccc(C(F)(F)F)c4)o3)CC2)c2cc(Br)ccc21 [Example 519] | 0.02 |

| Compound | IC50 [µM] |
| --- | --- |
| COc1ccc2c(c1)c(N1CCC(c3nc(-c4cccc(C)c4)no3)CC1)c(C(N)=O)c(=O)n2C [Example 520, 6-methoxy-1-methyl-4-{4-[3-(3-methylphenyl)-1,2,4-oxadiazol-5-yl]piperidin-1-yl}-2-oxo-1,2-dihydroquinoline-3-carboxamide] | 0.037 |
| COc1ccc2c(c1)c(N1CCC(c3nc(-c4ccccc4)no3)CC1)c(C(N)=O)c(=O)n2C [Example 521, 6-methoxy-1-methyl-2-oxo-4-[4-(3-phenyl-1,2,4-oxadiazol-5-yl)piperidin-1-yl]-1,2-dihydroquinoline-3-carboxamide] | 0.043 |
| COc1ccc2c(c1)c(N1CCC(c3nc(-c4ccccc4C)no3)CC1)c(C(N)=O)c(=O)n2C [Example 522, 6-methoxy-1-methyl-4-{4-[3-(2-methylphenyl)-1,2,4-oxadiazol-5-yl]piperidin-1-yl}-2-oxo-1,2-dihydroquinoline-3-carboxamide] | 0.044 |
| Cn1c(=O)c(C(N)=O)c(N2CCC(c3nc(-c4ccccc4)no3)CC2)c2cc(Br)ccc21 [Example 523, 6-bromo-1-methyl-2-oxo-4-[4-(3-phenyl-1,2,4-oxadiazol-5-yl)piperidin-1-yl]-1,2-dihydroquinoline-3-carboxamide] | 0.0037 |
| Cn1c(=O)c(C(N)=O)c(N2CCC(c3nnc(-c4ccccc4)o3)CC2)c2cc(Br)ccc21 [Example 524, 6-bromo-1-methyl-2-oxo-4-[4-(5-phenyl-1,3,4-oxadiazol-2-yl)piperidin-1-yl]-1,2-dihydroquinoline-3-carboxamide] | 0.045 |
| Cc1ccccc1-c1nnc(C2CCN(c3c(C(N)=O)c(=O)n(C)c4ccc(Br)cc34)CC2)o1 [Example 525, 6-bromo-1-methyl-4-{4-[5-(2-methylphenyl)-1,3,4-oxadiazol-2-yl]piperidin-1-yl}-2-oxo-1,2-dihydroquinoline-3-carboxamide] | 0.039 |
| Cc1cccc(-c2nnc(C3CCN(c4c(C(N)=O)c(=O)n(C)c5ccc(Br)cc45)CC3)o2)c1 [Example 526, 6-bromo-1-methyl-4-{4-[5-(3-methylphenyl)-1,3,4-oxadiazol-2-yl]piperidin-1-yl}-2-oxo-1,2-dihydroquinoline-3-carboxamide] | 0.027 |
| Cc1ccccc1-c1nnc(C2CCN(c3c(C(N)=O)c(=O)n(C)c4cc(O)c(Br)cc34)CC2)o1 [Example 529, 6-bromo-7-hydroxy-1-methyl-4-{4-[5-(2-methylphenyl)-1,3,4-oxadiazol-2-yl]piperidin-1-yl}-2-oxo-1,2-dihydroquinoline-3-carboxamide] | 0.046 |
| COc1cc2c(cc1Br)c(N1CCC(c3nc(-c4ccccc4C)no3)CC1)c(C#N)c(=O)n2C [Example 530, 6-bromo-7-methoxy-1-methyl-4-{4-[3-(2-methylphenyl)-1,2,4-oxadiazol-5-yl]piperidin-1-yl}-2-oxo-1,2-dihydroquinoline-3-carbonitrile] | 0.0018 |
| Cc1ccccc1-c1noc(C2CCN(c3c(C#N)c(=O)n(C)c4cc(O)c(Br)cc34)CC2)n1 [Example 531, 6-bromo-7-hydroxy-1-methyl-4-{4-[3-(2-methylphenyl)-1,2,4-oxadiazol-5-yl]piperidin-1-yl}-2-oxo-1,2-dihydroquinoline-3-carbonitrile] | 0.0081 |
| Cc1ccc2oc(C3CCN(c4c(C#N)c(=O)n(C)c5cc(O[C@@H]6CCOC6)c(Br)cc45)CC3)nc2c1 [Example 537, (−)-6-bromo-1-methyl-4-[4-(5-methyl-1,3-benzoxazol-2-yl)piperidin-1-yl]-2-oxo-7-{[(3R)-oxolan-3-yl]oxy}-1,2-dihydroquinoline-3-carbonitrile] | 0.0002 |
| COCCNc1cc2c(cc1C)c(N1CCC(c3nc4cc(C)ccc4o3)CC1)c(C#N)c(=O)n2C [Example 547, 7-[(2-methoxyethyl)amino]-1,6-dimethyl-4-[4-(5-methyl-1,3-benzoxazol-2-yl)piperidin-1-yl]-2-oxo-1,2-dihydroquinoline-3-carbonitrile] | 0.0006 |
| Cc1ccc2oc(C3CCN(c4c(C#N)c(=O)n(C)c5cc(NC6COC6)c(C)cc45)CC3)nc2c1 [Example 549, 1,6-dimethyl-4-[4-(5-methyl-1,3-benzoxazol-2-yl)piperidin-1-yl]-7-[(oxetan-3-yl)amino]-2-oxo-1,2-dihydroquinoline-3-carbonitrile] | 0.0006 |
| Cc1ccc2oc(C3CCN(c4c(C#N)c(=O)n(C)c5cc(N(C)CCO)c(C)cc45)CC3)nc2c1 [Example 551, 7-[(2-hydroxyethyl)(methyl)amino]-1,6-dimethyl-4-[4-(5-methyl-1,3-benzoxazol-2-yl)piperidin-1-yl]-2-oxo-1,2-dihydroquinoline-3-carbonitrile] | 0.0001 |
| COCCNc1cc2c(cc1C)c(N1CCC(c3nc4cc(C)ccc4o3)CC1)c(C(N)=O)c(=O)n2C [Example 552, 7-[(2-methoxyethyl)amino]-1,6-dimethyl-4-[4-(5-methyl-1,3-benzoxazol-2-yl)piperidin-1-yl]-2-oxo-1,2-dihydroquinoline-3-carboxamide] | 0.0016 |
